In PMC10363080, “Modulatory Effect of Pyrus pyrifolia Fruit and its Phenolics on Key Enzymes against Metabolic Syndrome: Bioassay-Guided Approach, HPLC Analysis, and In Silico Study” (Plant Foods for Human Nutrition (Dordrecht, Netherlands), 2023):
Like-named read-outs stand apart in the source and are kept apart here.

Legend:
[1] = Oxygen radical absorbance capacity (ORAC) assay; conditions: for ORAC antioxidant activity: Trolox equivalent per gram of sample, mean ± SD, n=3; for ORAC AA (%) antioxidant activity percentage: compared to ascorbic acid (=100)
Description: (§1) all of analytical grade. An electrothermal 9100 (UK) was used for the determination of melting points (uncorrected). A Jenway model 6800 spectrophotometer was utilized for recording UV spectra. A Tecan, microplate reader, ((Infinite F50, Switzerland)) was used to measure the absorbances. A Bruker NMR system was used for 1H-NMR (400 MHz) and 13C-NMR (100 MHz).
(§2) The NMR spectra were determined in CD3OH and DMSO-d6. Chemical shifts are given in δ (ppm) relative to the internal standard TMS. Phenolic acids and flavonoids used in HPLC analysis as well as all other reagents for biological investigations were obtained from Sigma Chemical Company […]
(§3) Determination of the antioxidant activity
(§4) 2,2`-Azino-bis(3-ethylbenzothiazoline-6-sulfonic acid) (ABTS), ferric reducing antioxidant power (FRAP), and oxygen radical absorbance capacity (ORAC) assays were performed according to the previously published procedures. Ascorbic acid was used as a reference antioxidant […]
drug. […]

[2] = Ferric reducing antioxidant power (FRAP) assay; design: FRAP AA (%) antioxidant activity percentage: concentration or dose not given beside the values; conditions: for FRAP antioxidant activity: Trolox equivalent per gram of sample, mean ± SD, n=3; for FRAP AA (%) antioxidant activity percentage: compared to ascorbic acid (=100)
Description: as §1, §2, §3, §4
drug. […]

[3] = ABTS radical scavenging antioxidant assay; design: ABTS AA (%) antioxidant activity percentage: concentration or dose not given beside the values; conditions: for ABTS antioxidant activity: Trolox equivalent per gram of sample, mean ± SD, n=3; for ABTS AA (%) antioxidant activity percentage: compared to ascorbic acid (=100)
Description: as §1, §2, §3, §4
drug. […]

Recombinant renin = biological target: T1, Recombinant renin (Homo sapiens, UniProt P00797); assay: Renin inhibitory activity (renin-inhibitor screening assay kit); format: biochemical; conditions: read-out: Inhibition (IC50) Renin (converted)
T1 construct: purchased BPS Bioscince
T1 sequence (P00797 67-406): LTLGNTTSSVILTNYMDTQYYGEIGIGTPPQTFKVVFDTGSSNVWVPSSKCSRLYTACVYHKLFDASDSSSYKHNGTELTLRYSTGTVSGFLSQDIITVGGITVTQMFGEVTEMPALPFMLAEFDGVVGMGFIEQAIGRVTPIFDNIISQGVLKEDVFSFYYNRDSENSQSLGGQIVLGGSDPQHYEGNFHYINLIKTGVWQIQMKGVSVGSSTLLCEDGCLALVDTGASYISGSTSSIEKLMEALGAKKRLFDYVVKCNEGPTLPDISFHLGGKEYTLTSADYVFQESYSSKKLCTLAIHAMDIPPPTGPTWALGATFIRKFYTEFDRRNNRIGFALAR
Description: all of analytical grade. […]
(§5) Phenolic acids and flavonoids used in HPLC analysis as well as all other reagents for biological investigations were obtained from Sigma Chemical Company […]
(§6) Inhibitory activity against key enzymes related to metabolic syndrome (MS) All assays were performed in 96-well plates. Stock solutions of the extract (100 mg/mL), fractions (100 mg/mL), and isolated compounds (1000 µM) were prepared. Tested samples that exceeded […]
(§7) inhibitory concentration (IC50). The percentage of enzyme inhibition was calculated according to […]
(§8) % Inhibition = (A−B) − (C−D) x 100 […]
Renin inhibitory activity
The renin inhibitory activity was examined according to a previously described method using renin-inhibitor screening assay kit (BPS Bioscince, San Diego, CA, USA) and quinapril as a reference drug. Recombinant renin enzyme (50 μL) was dissolved in 50-mM Tris-HCl buffer (pH 8.0) and 100-mM NaCl (assay buffer) and stored at –80°C for further analysis. Twenty μL of renin substrate (A500 μM in DMSO), 150 μL of assay buffer, and 10 μL of each sample were used to prepare test solutions (10mg/ml in methanol). The blank samples were made using 10 μL of the sample, 20 μL of the substrate, and 160 μL of assay buffer. The positive control samples were created using 10 μL of methanol, 20 μL of substrate, and 150 μL of assay buffer. The positive control and tested samples were combined with 10 μL of the renin solution for the assay in order to catalyze the reaction. After that, the reaction mixture was incubated for 45 minutes at 37 °C.
The fluorescence generated at the 340 nm excitation and 490 nm emission wavelengths was measured using a microplate reader.
Xanthine oxidase (XO) inhibitory activity
Xanthine oxidase (XO) inhibitory potential was carried out according to a previous designed procedure using xanthine oxidase (XO, EC 1.17.3.2; Biovision, USA). Allopurinol was applied as a reference drug. Immediately prior to use, a mixture was made up of 50 μL of sample solution, 35 μL of phosphate buffer (70 mM, pH = 7.5), and 30 μL of new enzyme solution (0.01 units/mL in the same buffer). The reaction was started by adding 60 μL of the substrate solution (150 μM xanthine in the same buffer) following a pre-incubation at 25 °C for 15 minutes. After that, the mixture was incubated at 25 °C for 30 min. After adding 25 μL of 1 M HCl to terminate the reaction, the absorbance was measured at 290 nm with a microplate reader as previously

[4] = biological target: T2, inducible nitric oxide synthase (iNOS) (Mus musculus, UniProt P29477); assay: iNOS inhibitory activity in LPS-induced RAW264.7 macrophages (nitrite, Griess reagent); format: cell-based; conditions: read-out: Inhibition (IC50) iNOS (converted)
T2 construct: endogenous in cells; host or cells: RAW264.7 mouse macrophages, LPS-induced
T2 sequence (P29477 1-1144): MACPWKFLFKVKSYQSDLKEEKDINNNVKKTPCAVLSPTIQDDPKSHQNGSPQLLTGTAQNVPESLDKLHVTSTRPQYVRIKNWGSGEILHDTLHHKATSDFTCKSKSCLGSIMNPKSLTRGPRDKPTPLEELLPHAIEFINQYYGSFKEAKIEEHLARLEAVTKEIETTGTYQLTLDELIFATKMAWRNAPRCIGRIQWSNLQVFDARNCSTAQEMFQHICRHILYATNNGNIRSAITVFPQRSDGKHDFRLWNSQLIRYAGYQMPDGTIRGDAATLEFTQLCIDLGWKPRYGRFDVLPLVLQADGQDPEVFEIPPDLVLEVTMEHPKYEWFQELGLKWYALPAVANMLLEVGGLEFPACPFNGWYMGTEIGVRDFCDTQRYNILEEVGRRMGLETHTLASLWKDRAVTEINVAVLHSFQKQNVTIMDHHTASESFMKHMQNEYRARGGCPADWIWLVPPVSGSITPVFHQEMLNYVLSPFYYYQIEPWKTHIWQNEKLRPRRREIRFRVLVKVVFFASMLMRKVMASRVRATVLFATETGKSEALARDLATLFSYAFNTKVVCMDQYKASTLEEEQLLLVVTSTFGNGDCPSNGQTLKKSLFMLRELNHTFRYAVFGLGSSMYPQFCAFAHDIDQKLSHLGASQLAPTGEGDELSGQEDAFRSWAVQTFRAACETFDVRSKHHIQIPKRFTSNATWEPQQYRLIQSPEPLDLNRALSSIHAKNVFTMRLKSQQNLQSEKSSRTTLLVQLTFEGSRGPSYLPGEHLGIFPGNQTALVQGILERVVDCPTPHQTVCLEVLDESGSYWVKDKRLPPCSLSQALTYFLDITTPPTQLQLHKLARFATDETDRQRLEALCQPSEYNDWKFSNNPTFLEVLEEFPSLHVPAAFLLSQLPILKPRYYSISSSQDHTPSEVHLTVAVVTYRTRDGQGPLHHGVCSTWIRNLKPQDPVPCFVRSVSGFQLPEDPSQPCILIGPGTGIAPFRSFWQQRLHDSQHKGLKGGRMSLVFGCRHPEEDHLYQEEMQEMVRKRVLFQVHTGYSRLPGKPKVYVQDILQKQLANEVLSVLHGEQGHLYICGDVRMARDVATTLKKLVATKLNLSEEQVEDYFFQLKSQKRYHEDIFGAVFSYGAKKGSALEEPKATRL
Description: as §5, §6, §7, §8
Inducible nitric oxide synthase (iNOS) inhibitory activity iNOS inhibitory activity was determined in mouse macrophage cells (RAW264.7, Shanghai BOGO Industrial Co., Ltd., China) according to a previously designed method. Phenol red-free RPMI medium from Thermo-Fisher was used to develop macrophages. It was supplemented with 10% bovine calf serum, 100 U/mL of penicillin G sodium from Sigma-Aldrich, and 100 µg/mL of streptomycin (Sigma-Aldrich). Cells (50,000/well) were seeded onto 96-well plates, which were […]

IC50 (Recombinant renin; isolated compounds, Table S7)	IC50 ([4]; extract and fractions, Table S2, RAW264.7 cells)	IC50 ([4]; isolated compounds, Table S7, RAW264.7 cells)	IC50 (Recombinant renin; extract and fractions, Table S2)	Compound	ORAC antioxidant activity [1]	ORAC AA (%) antioxidant activity percentage [1]	FRAP antioxidant activity [2]	FRAP AA (%) antioxidant activity percentage [2]	ABTS antioxidant activity [3]	ABTS AA (%) antioxidant activity percentage [3]	ORAC antioxidant activity ([1]; listed as quercetin)	FRAP antioxidant activity ([2]; listed as quercetin)	ABTS antioxidant activity ([3]; listed as quercetin)
–	–	–	–	O=C1O[C@H]([C@@H](O)CO)C(O)=C1O [Ascorbic acid, reference compound]	390.21±0.99 μM TE/g	100%	155.22±0.03 μM TE/g	100%	287.78±1.01 μM TE/g	100%	–	–	–
21.9 ± 0.25 µM	–	–	–	O=c1c(O)c(-c2ccc(O)c(O)c2)oc2cc(O)cc(O)c12 [P5, quercetin]	358.95±0.78 μM TE/g	91.99%	139.03±0.65 μM TE/g	89.57%	244.01±0.29 μM TE/g	84.79%	358.95 ± 0.78 μM TE/g	139.03 ± 0.65 μM TE/g	244.01 ± 0.29 μM TE/g
–	4.51 µM	4.51 µM	–	C=C1C(=O)O[C@H]2[C@H]1CC/C(C)=C/CC[C@@]1(C)O[C@@H]21 [parthenolide, reference compound]	–	–	–	–	–	–	–	–	–
0.045 µM	–	–	0.0456 µM	CCOC(=O)[C@H](CCc1ccccc1)N[C@@H](C)C(=O)N1Cc2ccccc2C[C@H]1C(=O)O [quinapril, reference compound]	–	–	–	–	–	–	–	–	–
